Results on 17 compounds are retold here after patent EP0318860B1, “Substituted alkylamine derivatives” (BANYU PHARMACEUTICAL CO., LTD., priority 1987, dated 1989).

Converted amounts (≈) assume the structure as drawn. Where a name gives a salt, the structure may show the parent alone. Read-outs that look alike come from different tables or passages of the source. A value given as a limit tells only on which side of the number the result lay.

Broadly, the MIC is the lowest concentration that inhibits growth of the organism.

In one assay the test system is Candida albicans. Briefly: Antimycotic activity test (Sabouraud's agar dilution, MIC). Type of assay: cell-based. To be noted: 48 h. On the procedure:
(§1) Each of the test fungi was cultured (Candida albicans was cultured overnight in Sabouraud broth; Trichophyton was inoculated in Sabouraud's agar and cultured for 2 days, after which the spores were harvested). Thereafter, one platinum loopful of Candida albicans or Trichophyton (10⁶ cells/ml for C. albicans; 10⁶ spores/ml for Trichophyton) was inoculated in Sabouraud's agar containing the test drug in various concentrations, and cultured (at 37 °C for 2 days for C. albicans; at 28 °C for 5 days for Trichophyton). Then, the minimum growth inhibition concentration (MIC) was measured. […]
In general terms: In agar dilution the substance is mixed into plates at graded concentrations.

The subject of the next assay is Trichophyton. The description is as above. To be noted: 120 h. Type of assay: cell-based. On the procedure:
as §1

Another assay deals with T1, rat squalene epoxidase (Rattus norvegicus, UniProt P52020).
T1 construct: Livers were extracted and homogenized; from tissue; host or cells: liver of SD-strain female rats; microsomes solubilized with 2 % Triton X-100, 105000 x g supernatant
T1 sequence (P52020 whole entry): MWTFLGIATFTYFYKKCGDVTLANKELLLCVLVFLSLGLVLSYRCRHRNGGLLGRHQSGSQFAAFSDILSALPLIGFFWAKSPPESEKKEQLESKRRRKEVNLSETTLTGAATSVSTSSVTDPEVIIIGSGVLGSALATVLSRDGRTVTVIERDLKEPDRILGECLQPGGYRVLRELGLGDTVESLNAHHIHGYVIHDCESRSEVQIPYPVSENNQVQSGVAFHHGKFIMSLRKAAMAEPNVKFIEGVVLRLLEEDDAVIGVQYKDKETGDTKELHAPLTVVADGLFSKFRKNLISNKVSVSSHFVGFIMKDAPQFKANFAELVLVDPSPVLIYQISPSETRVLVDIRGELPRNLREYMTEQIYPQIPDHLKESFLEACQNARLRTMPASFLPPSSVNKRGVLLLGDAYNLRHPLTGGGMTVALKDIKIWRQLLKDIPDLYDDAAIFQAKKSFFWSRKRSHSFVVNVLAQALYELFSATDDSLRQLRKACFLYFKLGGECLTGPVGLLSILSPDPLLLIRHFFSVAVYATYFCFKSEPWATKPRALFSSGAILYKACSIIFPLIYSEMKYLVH
The assay is described as follows: Squalene epoxidase inhibiting activity (3H-squalene to squalene-2,3-epoxide, solubilized liver microsome fraction). In kind it is biochemical. The note with it: 8 µM 3H-squalene, 37 °C, 30 minutes, read-out: 50 % inhibitory concentration (IC50). On the procedure:
The rat squalene epoxidase was prepared by the method described in J. Biol. Chem., vol.
SD-strain female rats were killed by exsanguination. Livers were extracted and homogenized with in the presence of 2 volumes of 0.1M Tris-HCl buffer (pH 7.5). The homogenate was centrifuged at 9750 Xg for 10 minutes. The supernatant fraction was further centrifuged at 105000 Xg for 1 hour. The sediment was washed with 0.1M Tris-HCl buffer (pH 7.5), and then centrifuged at 105000 Xg for 1 hour. The microsomes obtained were suspended in 0.1M Tris-HCl buffer (pH 7.5) so that the amount of proteins was 40 mg/ml, and under ice cooling, the suspension was stirred in the presence of 2 % Triton X-100 to solubilize the enzyme. After the solubilization, the solution was diluted to a Triton X-100 concentration of 0.5 % with 1 mM EDTA and 1 mM dithiothreitol, and centrifuged at 105000 Xg for 1 hour. The resulting supernatant fraction was used in the following test as a squalene epoxidase fraction.
The squalene epoxidase activity was assayed in accordance with the method described in J. Biol. Chem., vol.
Three microliters of a dimethyl sulfoxide solution of a test drug was added to a solution composed of 0.2 ml of the squalene epoxidase fraction prepared in (1) [proteins 0.4 mg, 0.5 % Triton X-100, […] Tris-HCl buffer (pH 7.5)], 100 µM FAD, 1 mM NADPH, 1 mM EDTA and 8 µM ³H-squalene-Tween 80 emulsion to adjust the total amount of the solution to 0.3 ml. The solution was incubated at 37 °C for 30 minutes with shaking. Then, 0.3 ml of a 10 % methanolic potassium hydroxide was added to stop the reaction, and the reaction mixture was left to stand at room temperature for 1 hour. The non-saponified material was extracted with petroleum ether, and the solvent was evaporated under a nitrogen stream. […] The position of the resulting ³H-squalene-2,3-epoxide on TLC was determined using ergosterol acetate as a marker, and the ³H-squalene-2,3-epoxide portion on the TLC was cut off. The TLC strip was immersed in a toluene-type scintillator, and measured by a liquid scintillation counter.
For orientation: Microsomes from liver hold many membrane-bound enzymes, among them those of drug oxidation.

Assay [1] relates to cholesterol biosynthesis in the cultured Hep-G2 cells. Briefly: Inhibitory activity on cholesterol biosynthesis in cultured cells ([14C] acetate incorporation). In kind it is cell-based. The note with it: HepG2; Human hepatoma (Hep-G2) cells, [14C] sodium acetate, 6 hours; read-out: 50% inhibitory concentration (IC₅₀). The method, then: Human hepatoma (Hep-G2) cells were cultured in 10 cm² dishes until they formed a monolayer. One milliliter of the culture medium was replaced, and 1 µCi of [¹⁴C] sodium acetate and 1 microliter of a dimethyl sulfoxide solution of a test drug were added, and the cells were cultured at 37 °C in air containing 5 % of carbon dioxide for 6 hours.
After the cultivation, the medium was aspirated, and the cells were cooled with ice, and washed with Dulbecco's phosphate buffered saline solution. The resulting cells were scraped by a rubber policeman, and collected by centrifugation. The cells collected were dissolved in 400 microliters of 0.3N sodium hydroxide. A 200 microliters aliquot of the solution was used for extraction, and the remainder, for protein determination.
To 200 microliters of the extracted cells, 15 % ethanolic potassium hydroxide was added, and saponification was carried out at 75 °C for 1 hour. Water (1 ml) was then added, and the mixture was extracted with 2 ml of petroleum ether twice to remove non-saponified materials. The petroleum ether extracts were washed with 1 ml of water, and evaporated under a nitrogen stream. The residue was spotted on a pre-coated silica gel TLC plate using a small amount of chloroform, and developed with hexane/ethyl ether/acetic acid (85:15:4). Cholesterol and squalene portions on the TLC were detected with iodine, and the corresponding TLC portions were cut out. The TLC strips were immersed in a toluene-type scintillator, and radioactivity was counted by a liquid scintillation counter. The results were corrected by the amount of proteins measured by the method described in J. Biol. Chem., vol. 193, page 265, 1951. The 50 % inhibitory concentration (IC₅₀ value) of the compound of the invention on cholesterol biosynthesis in the cultured Hep-G2 cells was calculated.

A further assay relates to cholesterol biosynthesis. Briefly: Test on inhibition of cholesterol biosynthesis in vivo ([14C] acetate, plasma 14C-cholesterol). To be noted: male SD rats, 100 mg/kg orally; for ¹⁴C-cholesterol: dpm of 14C-cholesterol present in 1 ml of the plasma; for Inhibition of cholesterol biosynthesis: test group compared with control group. The method, then: Male SD rats, 5 weeks of age, were used in the in vivo test. The rats were kept for 9 days in an environment of reversed light cycle (i.e., dark between 6:00 am and 6:00 pm). The rats were allowed to take a solid diet and water freely. The test drug was orally administered two hours before dark sixth hour when the cholesterol synthesis reached a maximum. Compounds 6 and 44 were administered as a suspension in a 0.5 % aqueous solution of methyl cellulose. Compound 45 was administered in a 0.5 % aqueous solution of methyl cellulose containing 5 % of dimethyl sulfoxide and 1 % Tween 80. The dose was 1 ml/100 g of body weight.
An equal volume of 0.5 % methyl cellulose was administered to a control group. One hour after administration of the test drug, [¹⁴C] sodium acetate (56 mCi/mmole) was intraperitoneally administered to the rats in a dose of 20 µCi/100 g of body weight. At dark sixth hour, a blood sample was obtained from the abdominal artery under ether anesthesia, and the plasma was separated by centrifugation.
Two milliliters of plasma was mixed with a 15 % methanolic potassium hydroxide and saponified by heating at 75 °C for 3 hours. The resulting sample was extracted with 2 ml of petroleum ether twice. The extracts were washed with 2 ml of distilled water, and finally evaporated under a nitrogen stream. The resulting residue was dissolved in a small amount of ethyl ether, and all the solution was spotted on a pre-coated silica gel TLC plate. The plate was developed with a solvent system composed of hexane/ethyl ether/acetic acid (85:15:4). Color formation was carried out by iodine, and the radioactivity of the cholesterol portion was measured by a liquid scintillation counter.
The results were expressed in dpm of the resulting ¹⁴C-cholesterol present in 1 ml of the plasma. The inhibition of cholesterol biosynthesis was calculated by comparing the amounts of ¹⁴C-cholesterol biosynthesized in the test group and that in the control group.

The mark [2] stands for this setting: C. albicans, 37 °C for 2 days, read-out: MIC.
Setting [3] is: 28 °C for 5 days, read-out: MIC.

Turning to `CN(C/C=C/C#CC(C)(C)C)Cc1cccc(OCc2ccccc2)c1.Cl` [Compound 2, (E)-N-(6,6-dimethyl-2-hepten-4-ynyl)-N-methyl-3-benzyloxybenzylamine hydrochloride], the MIC in the assay on Candida albicans (setting [2]) and in the assay with Trichophyton (setting [3]) was over 100 µg/mL in each case. Further, the values for the IC50 (on rat squalene epoxidase; in assay [1]) were 1400 nM and 1500 nM, respectively.

Take `Cc1ccccc1COc1cccc(CN(C)C/C=C/C#CC(C)(C)C)c1.Cl` [Compound 6, (E)-N-(6,6-dimethyl-2-hepten-4-ynyl)-N-methyl-3-(2-methylbenzyloxy)benzylamine hydrochloride]: the IC50 on rat squalene epoxidase is 560 nM. For the same compound, in the assay with cholesterol biosynthesis, the ¹⁴C-cholesterol amounted to 862±387 dpm and the “Inhibition of cholesterol biosynthesis” value is 53%. The IC50 in assay [1] was 340 nM.

As for `CN(C/C=C/C#CC(C)(C)C)Cc1cccc(OCc2cccc3ccccc23)c1` [Compound 18, (E)-N-(6,6-dimethyl-2-hepten-4-ynyl)-N-methyl-3-(1-naphthylmethyloxy)benzylamine], the MIC in the assay with Candida albicans (setting [2]) and in the assay on Trichophyton (setting [3]) was over 100 µg/mL each time. Besides, the IC50 at rat squalene epoxidase was 250 nM.

As to `CCN(C/C=C/C#CC(C)(C)C)Cc1cccc(OCc2ccccc2)c1` [Compound 36, (E)-N-(6,6-dimethyl-2-hepten-4-ynyl)-N-ethyl-3-benzyloxybenzylamine hydrochloride], the IC50 at rat squalene epoxidase was determined as 300 nM; in assay [1] it was 64 nM.

For `CCCN(C/C=C/C#CC(C)(C)C)Cc1cccc(OCc2ccccc2)c1` [Compound 37, (E)-N-(6,6-dimethyl-2-hepten-4-ynyl)-N-propyl-3-benzyloxybenzylamine], the IC50 came out at 270 nM on rat squalene epoxidase and 85 nM in assay [1].

For `CCN(C/C=C/C#CC(C)(C)C)Cc1cccc(OCc2ccccc2C)c1.Cl` [Compound 44, (E)-N-(6,6-dimethyl-2-hepten-4-ynyl)-N-ethyl-3-(2-methylbenzyloxy)benzylamine hydrochloride], the IC50 at rat squalene epoxidase came to 160 nM. Besides, in the assay with cholesterol biosynthesis, the ¹⁴C-cholesterol was found to be 568±313 dpm and the “Inhibition of cholesterol biosynthesis” value was 69%. Moreover, the IC50 in assay [1] was 50 nM.

Consider `CCN(C/C=C/C#CC(C)(C)C)Cc1cccc(OCc2cccc(C#N)c2)c1` [Compound 46, (E)-N-(6,6-dimethyl-2-hepten-4-ynyl)-N-ethyl-3-(3-cyanobenzyloxy)benzylamine], for which the IC50 on rat squalene epoxidase was found to be 150 nM; in assay [1], 110 nM.

On to `CCCN(C/C=C/C#CC(C)(C)C)Cc1cccc(OCc2cccc(C#N)c2)c1` [Compound 47, (E)-N-(6,6-dimethyl-2-hepten-4-ynyl)-N-propyl-3-(3-cyanobenzyloxy)benzylamine hydrochloride], for which the IC50 at rat squalene epoxidase came out at 150 nM; in assay [1] it was 90 nM.

Turning to `CC(C)=CCOc1cccc(CN(C)C/C=C/C#CC(C)(C)C)c1` [Compound 61, (E)-N-(6,6-dimethyl-2-hepten-4-ynyl)-N-methyl-3-(3-methyl-2-butenyloxy)benzylamine], the MIC in the assay with Candida albicans (setting [2]) and in the assay on Trichophyton (setting [3]) was over 100 µg/mL in each case. Further, at rat squalene epoxidase, the IC50 was 6100 nM.

As for `CN(C/C=C/C#CC(C)(C)C)Cc1cccc(OCc2cccc(C#N)c2)c1.Cl` [Compound 64, (E)-N-(6,6-dimethyl-2-hepten-4-ynyl)-N-methyl-3-(3-cyanobenzyloxy)benzylamine hydrochloride], the MIC in the assay with Candida albicans (setting [2]) and with Trichophyton (setting [3]) was over 100 µg/mL throughout. For the same compound, the IC50 turned out to be 510 nM on rat squalene epoxidase and 120 nM in assay [1].

Take `CN(C/C=C/C#CC(C)(C)C)Cc1cccc(OCc2cccc(-c3cnco3)c2)c1` [Compound 78, (E)-N-(6,6-dimethyl-2-hepten-4-ynyl)-N-methyl-3-[3-(5-oxazolyl)benzyloxy]benzylamine]: the IC50 is 63 nM on rat squalene epoxidase and 20 nM in assay [1].

On to `CN(C/C=C/C#CC(C)(C)C)Cc1cccc(OCc2cccc(-c3cncs3)c2)c1` [Compound 79, (E)-N-(6,6-dimethyl-2-hepten-4-ynyl)-N-methyl-3-[3-(5-thiazolyl)benzyloxy]benzylamine], for which the IC50 was found to be 89 nM on rat squalene epoxidase and 23 nM in assay [1].

Take `CN(C/C=C/C#CC(C)(C)C)Cc1cccc(/C=C/c2ccccc2)c1.Cl` [Compound 97, N-[(E)-6,6-dimethyl-2-hepten-4-ynyl]-N-methyl-3-[(E)-styryl]benzylamine hydrochloride]: the MIC with Candida albicans (setting [2]) and in the assay with Trichophyton (setting [3]) was over 100 µg/mL in each case. The IC50 on rat squalene epoxidase is 320 nM.

In the case of `Cc1ccccc1CNc1cccc(CN(C)C/C=C/C#CC(C)(C)C)c1` [Compound 103, (E)-N-(6,6-dimethyl-2-hepten-4-ynyl)-N-methyl-3-(2-methylbenzylamino)benzylamine hydrochloride], the IC50 at rat squalene epoxidase turned out to be 360 nM; in assay [1], 450 nM.

With `CN(C/C=C/C#CC(C)(C)C)Cc1cccc(CCc2ccccc2)c1` [Compound 107, (E)-N-(6,6-dimethyl-2-hepten-4-ynyl)-N-methyl-3-(beta-phenethyl)benzylamine], the MIC with Candida albicans (setting [2]) and with Trichophyton (setting [3]) was over 100 µg/mL in each case. On rat squalene epoxidase, the IC50 is 3600 nM.

With `CN(C/C=C/C#CC(C)(C)C)Cc1cc(OCc2ccccc2)ccn1.Cl.Cl` [Compound 110, (E)-N-(6,6-dimethyl-2-hepten-4-ynyl)-N-methyl-4-benzyloxy-2-pyridylmethylamine dihydrochloride], the MIC in the assay on Candida albicans (setting [2]) and in the assay on Trichophyton (setting [3]) was over 100 µg/mL each time. In addition, the IC50 on rat squalene epoxidase turned out to be 1500 nM.

As for `CN(C/C=C/C#CC(C)(C)C)Cc1cccc2ccccc12` [terbinafine, reference compound], the figures for the MIC against Candida albicans and against Trichophyton were 0.3 µg/mL (≈ 1.03 µM) and under 0.01 µg/mL, respectively. For the same compound, the IC50 at rat squalene epoxidase is over 100000 nM.
